{"source": "patent US11213536B2", "about": "“Acylated compounds for the treatment of ocular pathologies” (CONSEJO SUPERIOR DE INVESTIGACIONES CIENTÍFICAS, priority 2016, dated 2022)", "key": {"Prpf31^A216P/+ (KI) mice": {"tested_on": "Prpf31^A216P/+ (KI) mice", "assay": "Prpf31 A216P/+ mice RPE degeneration model, eye drops and light damage", "assay_type": "in vivo, mouse", "settings": "for Fundus Abnormal (%) / Fundus Normal (%) / Fundus Abnormal (number) / Fundus Normal (number): 2 mM eye drops daily for two and a half months, 5,000 lux 3 h; for Fundus Abnormal (number) / Fundus Normal (number): n=10; for number of positive responses in optomotor test (visual acuity): 6 spatial frequencies 0.031-0.272 cycles/degree, vs control KI; for thickness of the retina (OCT): vs control KI group; for statistical association with normal fundi vs control KI group: chi-square / Fisher's exact test", "from_the_text": "Prpf31^A216P/+ mice are a useful model for assessing the degeneration of the RPE. This model is characterized by an increase in the thickness of the Bruch membrane and accumulation of esterified cholesterol between said membrane and the RPE produced by a defect in the splicing of the mRNA of relevant genes of the visual cycle, such as RPE65 and RDH12. The accumulation of toxic products derived from retinol leads to an increase in ROS, infiltration of macrophages, and primary degeneration of the RPE. The degeneration of the RPE occurs late, at approximately 8 months of age. The phenotypic characteristics of this model can be exacerbated by exposure to intense light and are characterized primarily by accumulation of pseudo-drusenoid lesions and regions of atrophy observed in the fundus, with a loss of visual acuity and perception of contrast being observed, as well as a decrease in the amplitude of the c-wave of the ERG and a decrease in the thickness of the retina.\nTo evaluate the protective effect of the administration of our compounds in eye drops, we used heterozygous 6 month-old Prpf31^A216P/+ (KI) mice that were treated topically with 20 μl of the studied compounds applied directly on the corneal surface daily (L-V) for two and a half months. The compounds used were RES and compound 2, which were diluted in a solution of 13% hydroxypropyl-beta-cyclodextrin (CYCLO) in order to obtain a final concentration of 2 mM of each compound. After two and a half months of application of the eye drops with CICLO, RES, or compound 2, the mutant KI mice were exposed to a light source of 5,000 lux for 3 hours. Normal (WT) and KI mice were also exposed to intense light as test control without receiving any treatment. Subsequently, the fundus of the animals was evaluated, in addition to the visual acuity by means of the optomotor test, the thickness of the retina by means of optical coherence tomography (OCT), and the amplitude of the c-wave by ERG.\nTwo categories were used to quantify the macroscopic characteristics of the fundus: abnormal and normal fundus. The fundi categorized as abnormal were those in which the presence of autofluorescent pseudo-drusenoid lesions was observed (FIG. 11; arrows) or with regions of focal atrophy (FIG. 11; arrowheads). The percentage of abnormal fundi in the WT mice exposed to light (WT control) was 20%, and in the untreated KI (KI control) it was 90%. Meanwhile, this percentage was reduced to 30% in mice treated with compound 2 (KI 2) and only to 60% in both mice treated with CYCLE (KI CYCLE) and RES (KI RES) (table 1). […] These values were similar to those observed when comparing WT control and KI control (chi-square=7.35, P<0.01, Fisher's exact test P<0.05) and with a probability of obtaining a normal fundus in the WT control group of eight times greater than in the control KI (normal RR=8; IC95%=1.184-54.043).\nTo evaluate the thickness of the retina in vivo, a Stratus OCT (Zeiss) was used with a scanner adjusted to 6 lines of 3.45 mm each arranged radially. Six measurements were performed in each eye, upon which the retinal map was prepared (FIG. 12) with the thickness of the retina quantified from the ganglion cell layer to the RPE.\nTo evaluate the functional integrity of the RPE, the amplitude of the c-wave in the ERG was measured. The c-wave is defined as a positive slow wave that appears after the b-wave and is used to measure the functional integrity of the RPE. Since the amplitude of this wave can be affected by the integrity of the photoreceptors, it is best to normalize the results with the amplitude of the b-wave, for which reason a quantification was performed of the proportion of the amplitude of the c-wave between the amplitude of the b-wave (c-/b-wave ratio) (FIG. 13). […]"}, "[1]": {"assay": "Zebrafish embryo toxicity assay", "settings": "in vivo, other: incubation of embryos with the compound, 0 to 96 hpf", "method": "Twenty zebrafish embryos were incubated for each concentration of compound to be tested (1 to 4). The concentrations used of each compound are 0.1 μM, 1 μM, 10 μM, 100 μM and 1 mM. The incubation period goes from 0 to 96 hours post fertilization (hpf). A negative control of 1% DMSO and a positive control of N, N-diethylaminobenzaldehyde (DEAB) are included. After the incubation period, the LC50 (lethal dose for 50% of the animals) is calculated."}, "RAW 264.7 macrophages": {"tested_on": "RAW 264.7 macrophages", "assay": "Inflammation parameters (TNF-α, NO, IL-6) in supernatant of LPS-stimulated RAW 264.7 macrophages", "assay_type": "cell-based", "settings": "10 μM, LPS 1 μg/ml, 24 h", "method": "To determine the production of cytokines, 5×10^5 RAW 264.7 macrophages were seeded in 24-well plates (0.5 ml per well). The compounds to be tested were then added (10 μM), and the macrophages were either stimulated or not through the addition of LPS (1 μg/ml) to the culture medium. After 24 hours, the levels of IL-6 and TNF-α were measured in the supernatants by ELISA using the capture and biotinylated antibodies from BD PharMingen and PrepoTech (Gonzalez-Rey et al., Gut. 2009; 58:929-939; Sánchez et al., Stem Cells. 2011; 29:251-262). The levels of NO in the supernatants at 24 hours were measured indirectly by determining the nitrite concentration in the medium using the Griess reagent (Anderson et al., Gut. 2013; 62:1131-1141). A minimum of two independent experiments and three replicates per experiment were performed for each measured value. The values are expressed as the mean±standard deviation.\nIn the previous assay, the levels of various inflammation parameters were measured (TNF-α, NO, and IL-6) by ELISA after treatment with RES or with compound 2 (FIGS. 3, 4, and 5)."}, "[2]": {"settings": "KI mice, 2 mM eye drops, light damage"}}, "note": "Marks after values point to notes of the source that are not given here."}
{"smiles": "CCCCCCCC(=O)OCC1OC(Oc2cc(O)cc(/C=C/c3ccc(O)cc3)c2)C(O)C(O)C1O", "note": "[Compound 2, trans-resveratrol-3-O-(6′-O-octanoyl)-β-D-glucopyranoside]", "values": [{"measurement": "Fundus Abnormal (%)", "setting": "Prpf31^A216P/+ (KI) mice; KI mice", "value": "(30) %"}, {"measurement": "Fundus Normal (%)", "setting": "Prpf31^A216P/+ (KI) mice; KI mice", "value": "(70)* %"}, {"measurement": "Fundus Abnormal (%)", "setting": "Prpf31^A216P/+ (KI) mice; KI mice, listed as compound 2", "value": 30, "unit": "%"}, {"measurement": "Fundus Abnormal (number)", "setting": "Prpf31^A216P/+ (KI) mice; KI mice", "value": 3}, {"measurement": "Fundus Normal (number)", "setting": "Prpf31^A216P/+ (KI) mice; KI mice", "value": 7}, {"measurement": "autofluorescent pseudo-drusenoid lesions and regions of focal atrophy in the fundus", "setting": "Prpf31^A216P/+ (KI) mice; [2]", "value": "this type of lesion was not observed"}, {"measurement": "c-/b-wave ratio (ERG)", "setting": "Prpf31^A216P/+ (KI) mice; [2]", "value": "significantly higher"}, {"measurement": "number of positive responses in optomotor test (visual acuity)", "setting": "Prpf31^A216P/+ (KI) mice; [2]", "value": "significantly higher"}, {"measurement": "autofluorescent pseudo-drusenoid lesions and regions of focal atrophy in the fundus", "setting": "Prpf31^A216P/+ (KI) mice; KI mice, 2 mM eye drops, light damage, listed as compound 2", "value": "prevented the formation"}, {"measurement": "thickness of the retina (OCT)", "setting": "Prpf31^A216P/+ (KI) mice; [2]", "value": "significantly greater"}, {"measurement": "statistical association with normal fundi vs control KI group", "setting": "Prpf31^A216P/+ (KI) mice", "value": "statistically significant relationship"}, {"measurement": "RR normal (probability of normal fundus vs. KI control)", "setting": "Prpf31^A216P/+ (KI) mice; vs KI control, IC95% = 1.044-46.949", "value": 7}, {"measurement": "LC50", "setting": "[1]", "value": "< 140", "unit": "µM"}, {"measurement": "IL-6 in culture medium", "setting": "RAW 264.7 macrophages; ELISA", "value": "similarly"}]}
{"smiles": "Oc1ccc(C=Cc2cc(O)cc(O)c2)cc1", "note": "[RES, resveratrol, reference compound]", "values": [{"measurement": "Fundus Normal (%)", "setting": "Prpf31^A216P/+ (KI) mice; KI mice", "value": "(40) %"}, {"measurement": "Fundus Abnormal (number)", "setting": "Prpf31^A216P/+ (KI) mice; KI mice", "value": 6}, {"measurement": "Fundus Normal (number)", "setting": "Prpf31^A216P/+ (KI) mice; KI mice", "value": 4}, {"measurement": "autofluorescent pseudo-drusenoid lesions and regions of focal atrophy in the fundus", "setting": "Prpf31^A216P/+ (KI) mice; [2]", "value": "areas with autofluorescent punctiform yellow-white lesions (arrows) were observed"}, {"measurement": "number of positive responses in optomotor test (visual acuity)", "setting": "Prpf31^A216P/+ (KI) mice; [2]", "value": "only significant at 0.194 cycles/degree"}, {"measurement": "thickness of the retina (OCT)", "setting": "Prpf31^A216P/+ (KI) mice; [2]", "value": "significantly greater"}, {"measurement": "statistical association with normal fundi vs control KI group", "setting": "Prpf31^A216P/+ (KI) mice", "value": "no statistically significant association"}, {"measurement": "LC50", "setting": "[1]", "value": "< 1000", "unit": "µM"}, {"measurement": "IL-6 in culture medium", "setting": "RAW 264.7 macrophages; ELISA", "value": "significantly decreases"}, {"measurement": "TNF-α in culture medium", "setting": "RAW 264.7 macrophages; ELISA", "value": "significantly decreases"}, {"measurement": "NO in culture medium", "setting": "RAW 264.7 macrophages; Griess reagent", "value": "significantly decreases"}]}
